The structures appear in SMILES notation. Where a SMILES comes first, the peptide text is derived from it. Bridges are numbered along the chain shown (N, C = ends). [ ]: non-standard residue; d: D form. The star is where a group is joined. ξ: configuration not given here. X1 = CC(C)(C)[Si](F)(c1ccc(C[N+](C)(C)CC(=O)*)cc1)C(C)(C)C; DO3AM = NC(=O)CN1CCN(CC(N)=O)CCN(CC(=O)*)CCN(CC(N)=O)CC1; ξW = NC(Cc1c[nH]c2ccccc12)C(=O)O; dOrn = NCCC[C@@H](N)C(=O)O; ξF = NC(Cc1ccccc1)C(=O)O; ξT = CC(O)C(N)C(=O)O; ξDap = NCC(N)C(=O)O; ξC = NC(CS)C(=O)O

T1 sequence (P30874 whole entry, species assumed): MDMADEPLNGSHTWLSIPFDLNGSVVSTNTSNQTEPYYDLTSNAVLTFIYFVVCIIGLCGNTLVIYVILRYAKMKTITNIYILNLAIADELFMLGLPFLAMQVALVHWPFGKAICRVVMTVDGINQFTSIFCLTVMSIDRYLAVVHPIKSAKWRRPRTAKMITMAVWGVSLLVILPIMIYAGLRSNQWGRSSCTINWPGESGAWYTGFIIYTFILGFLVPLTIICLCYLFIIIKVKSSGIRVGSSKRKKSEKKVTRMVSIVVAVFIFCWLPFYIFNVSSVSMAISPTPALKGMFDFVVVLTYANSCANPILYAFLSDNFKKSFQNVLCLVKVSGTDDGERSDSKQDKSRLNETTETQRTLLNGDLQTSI

The assay addresses T1, SST2 (Homo sapiens, UniProt P30874).
T1 construct: expressed in transfected cells; host or cells: CHO (Chinese hamster ovary) cells
The experiment in a line: Determination of IC50: competitive binding against [125I]TOC on SST2-transfected CHO cells. To be noted: [125I]TOC reference radioligand, 60 min room temperature. As to the method:
The SST2-transfected CHO cells were cultivated in Dulbecco's Modified Eagle Medium/Nutrient Mixture F-12 (DMEM/F-12) with Glutamax-I (1:1) (Gibco), supplemented with 10% fetal calf serum (FCS) and maintained at 37° C. in a humidified 5% CO2 atmosphere. […] After removal of the culture medium, the cells were treated once with 300 μL of HBSS-B (Hank's balanced salt solution, Biochrom, Berlin, Germany, with addition of 1% bovine serum albumin (BSA)) and left with 200 μL HBSS-B. Next, 25 μL per well of solutions, containing either HBSS-B (control) or the respective ligand in increasing concentration (10^−10-10^−4 M in HBSS-B, were added with subsequent addition of 25 μL of
[^125I]TOC ([^125I]Tyr^3-Octreotide) (1.0 nM) in HBSS-B. Each concentration is investigated in triplicate. After 60 min incubation at room temperature, the experiment was terminated by removal of the assay medium and consecutive rinsing with 300 μL of cold PBS. The media of both steps were combined in one fraction and represent the amount of unbound radioligand.
Afterwards, the cells were lysed with 300 μL of 1 M NaOH and united with the 300 μL 1 M NaOH of the following wash step. Quantification of bound and unbound radioligand was accomplished in a γ-counter.
For the molecule `C[C@@H](O)[C@H](NC(=O)C1CSSCC(NC(=O)C(Cc2ccccc2)NC(=O)CNC(=O)CNC(=O)[C@@H](CC(=O)O)NC(=O)C(CC(=O)O)NC(=O)[C@@H](CNC(=O)CC[C@H](C(=O)O)N2CCN(CC(=O)O)CCN(CC(=O)O)CCN(CC(=O)O)CC2)NC(=O)C(CN)NC(=O)c2ccc([Si](F)(C(C)(C)C)C(C)(C)C)cc2)C(=O)N[C@@H](Cc2ccc(O)cc2)C(=O)NC(Cc2c[nH]c3ccccc23)C(=O)N[C@@H](CCCCN)C(=O)N[C@@H]([C@@H](C)O)C(=O)N1)C(=O)O` (stereo partly shown) (natLu complex, metal not drawn) [[Lu]20], the IC50 amounted to 11 ± 5.69 nM.
Next, `C[C@@H](O)[C@H](NC(=O)C1CSSCC(NC(=O)C(Cc2ccccc2)NC(=O)CNC(=O)CNC(=O)[C@@H](CC(=O)O)NC(=O)C(CC(=O)O)NC(=O)[C@@H](CNC(=O)CN2CCN(CC(=O)O)CCN(CC(=O)O)CCN(CC(=O)O)CC2)NC(=O)C[N+](C)(C)Cc2ccc([Si](F)(C(C)(C)C)C(C)(C)C)cc2)C(=O)N[C@@H](Cc2ccc(O)cc2)C(=O)NC(Cc2c[nH]c3ccccc23)C(=O)N[C@@H](CCCCN)C(=O)N[C@@H]([C@@H](C)O)C(=O)N1)C(=O)O` (stereo partly shown) (natLu complex, metal not drawn) [[Lu]24]: 5.5 ± 0.76 nM; `C[C@@H](O)[C@H](NC(=O)C1CSSCC(NC(=O)C(Cc2ccccc2)NC(=O)CNC(=O)CNC(=O)CNC(=O)C(CC(=O)O)NC(=O)[C@@H](CC(=O)O)NC(=O)C(CNC(=O)C[N+](C)(C)Cc2ccc([Si](F)(C(C)(C)C)C(C)(C)C)cc2)NC(=O)CN2CCN(CC(=O)O)CCN(CC(=O)O)CCN(CC(=O)O)CC2)C(=O)N[C@@H](Cc2ccc(O)cc2)C(=O)NC(Cc2c[nH]c3ccccc23)C(=O)N[C@@H](CCCCN)C(=O)N[C@@H]([C@@H](C)O)C(=O)N1)C(=O)O` (stereo partly shown) (natLu complex, metal not drawn) [[Lu]44]: 3.86 ± 0.23 nM.
Next, `C[C@@H](O)[C@H](NC(=O)C1CSSCC(NC(=O)C(Cc2ccccc2)NC(=O)CNC(=O)CNC(=O)CNC(=O)C(CC(=O)O)NC(=O)[C@@H](CC(=O)O)NC(=O)C(CCCCN)NC(=O)[C@@H](CNC(=O)C[N+](C)(C)Cc2ccc([Si](F)(C(C)(C)C)C(C)(C)C)cc2)NC(=O)CN2CCN(CC(=O)O)CCN(CC(=O)O)CCN(CC(=O)O)CC2)C(=O)N[C@@H](Cc2ccc(O)cc2)C(=O)NC(Cc2c[nH]c3ccccc23)C(=O)N[C@@H](CCCCN)C(=O)N[C@@H]([C@@H](C)O)C(=O)N1)C(=O)O` (stereo partly shown) (natLu complex, metal not drawn) [[Lu]45]: 3.37 ± 0.35 nM; `C[C@@H](O)[C@H](NC(=O)C1CSSCC(NC(=O)C(Cc2ccccc2)NC(=O)CNC(=O)CNC(=O)CNC(=O)C(CC(=O)O)NC(=O)[C@@H](CC(=O)O)NC(=O)C(CCCNC(N)=O)NC(=O)[C@@H](CNC(=O)C[N+](C)(C)Cc2ccc([Si](F)(C(C)(C)C)C(C)(C)C)cc2)NC(=O)CN2CCN(CC(=O)O)CCN(CC(=O)O)CCN(CC(=O)O)CC2)C(=O)N[C@@H](Cc2ccc(O)cc2)C(=O)NC(Cc2c[nH]c3ccccc23)C(=O)N[C@@H](CCCCN)C(=O)N[C@@H]([C@@H](C)O)C(=O)N1)C(=O)O` (stereo partly shown) (natLu complex, metal not drawn) [[Lu]46]: 4.07 ± 0.52 nM.
`C[C@@H](O)[C@H](NC(=O)C1CSSCC(NC(=O)C(Cc2ccccc2)NC(=O)CNC(=O)CNC(=O)CNC(=O)C(CC(=O)O)NC(=O)[C@@H](CC(=O)O)NC(=O)C(CCC(=O)O)NC(=O)[C@@H](CNC(=O)C[N+](C)(C)Cc2ccc([Si](F)(C(C)(C)C)C(C)(C)C)cc2)NC(=O)CN2CCN(CC(=O)O)CCN(CC(=O)O)CCN(CC(=O)O)CC2)C(=O)N[C@@H](Cc2ccc(O)cc2)C(=O)NC(Cc2c[nH]c3ccccc23)C(=O)N[C@@H](CCCCN)C(=O)N[C@@H]([C@@H](C)O)C(=O)N1)C(=O)O` (stereo partly shown) (natLu complex, metal not drawn) [[Lu]47] had an IC50 of 5.13 ± 0.51 nM.
Regarding `C[C@@H](O)[C@H](NC(=O)C1CSSCC(NC(=O)C(Cc2ccccc2)NC(=O)[C@@H](CC(N)=O)NC(=O)C(CC(N)=O)NC(=O)[C@@H](CC(=O)O)NC(=O)C(CC(=O)O)NC(=O)[C@@H](CNC(=O)CN2CCN(CC(=O)O)CCN(CC(=O)O)CCN(CC(=O)O)CC2)NC(=O)C[N+](C)(C)Cc2ccc([Si](F)(C(C)(C)C)C(C)(C)C)cc2)C(=O)N[C@@H](Cc2ccc(O)cc2)C(=O)NC(Cc2c[nH]c3ccccc23)C(=O)N[C@@H](CCCCN)C(=O)N[C@@H]([C@@H](C)O)C(=O)N1)C(=O)O` (stereo partly shown) (natLu complex, metal not drawn) [[Lu]48], the IC50 turned out to be 5.5 ± 1.47 nM.
In turn, `C[C@@H](O)[C@H](NC(=O)C1CSSCC(NC(=O)C(Cc2ccccc2)NC(=O)[C@@H](CC(N)=O)NC(=O)C(CC(N)=O)NC(=O)CNC(=O)C(CC(=O)O)NC(=O)[C@@H](CC(=O)O)NC(=O)C(CNC(=O)CN2CCN(CC(=O)O)CCN(CC(=O)O)CCN(CC(=O)O)CC2)NC(=O)C[N+](C)(C)Cc2ccc([Si](F)(C(C)(C)C)C(C)(C)C)cc2)C(=O)N[C@@H](Cc2ccc(O)cc2)C(=O)NC(Cc2c[nH]c3ccccc23)C(=O)N[C@@H](CCCCN)C(=O)N[C@@H]([C@@H](C)O)C(=O)N1)C(=O)O` (stereo partly shown) (natLu complex, metal not drawn) [[Lu]49] had an IC50 of 4.47 ± 0.95 nM.
`C[C@@H](O)[C@H](NC(=O)C1CSSCC(NC(=O)C(Cc2ccccc2)NC(=O)CNC(=O)CNC(=O)CNC(=O)C(CC(=O)O)NC(=O)[C@@H](CC(=O)O)NC(=O)C(CNC(=O)CN2CCN(CC(=O)O)CCN(CC(=O)O)CCN(CC(=O)O)CC2)NC(=O)C[N+](C)(C)Cc2ccc([Si](F)(C(C)(C)C)C(C)(C)C)cc2)C(=O)N[C@@H](Cc2ccc(O)cc2)C(=O)NC(Cc2c[nH]c3ccccc23)C(=O)N[C@@H](CCCCN)C(=O)N[C@@H]([C@@H](C)O)C(=O)N1)C(=O)O` (stereo partly shown) (natLu complex, metal not drawn) [[Lu]50] showed an IC50 of 3.72 ± 0.61 nM.
Next, `C[C@@H](O)[C@H](NC(=O)C1CSSCC(NC(=O)C(Cc2ccccc2)NC(=O)CNC(=O)CNC(=O)CNC(=O)C(CC(=O)O)NC(=O)[C@@H](CC(=O)O)NC(=O)C(CNC(=O)CN2CCN(CC(=O)O)CCN(CC(=O)O)CCN(CC(=O)O)CC2)NC(=O)[C@@H](CN)NC(=O)C[N+](C)(C)Cc2ccc([Si](F)(C(C)(C)C)C(C)(C)C)cc2)C(=O)N[C@@H](Cc2ccc(O)cc2)C(=O)NC(Cc2c[nH]c3ccccc23)C(=O)N[C@@H](CCCCN)C(=O)N[C@@H]([C@@H](C)O)C(=O)N1)C(=O)O` (stereo partly shown) (natLu complex, metal not drawn) [[Lu]51]: 3.09 ± 0.16 nM.
Next, `C[C@@H](O)[C@H](NC(=O)C1CSSCC(NC(=O)C(Cc2ccccc2)NC(=O)CNC(=O)CNC(=O)CNC(=O)C(CC(=O)O)NC(=O)[C@@H](CC(=O)O)NC(=O)C(CNC(=O)CN2CCN(CC(=O)O)CCN(CC(=O)O)CCN(CC(=O)O)CC2)NC(=O)[C@@H](CN)NC(=O)CNC(=O)C[N+](C)(C)Cc2ccc([Si](F)(C(C)(C)C)C(C)(C)C)cc2)C(=O)N[C@@H](Cc2ccc(O)cc2)C(=O)NC(Cc2c[nH]c3ccccc23)C(=O)N[C@@H](CCCCN)C(=O)N[C@@H]([C@@H](C)O)C(=O)N1)C(=O)O` (stereo partly shown) (natLu complex, metal not drawn) [[Lu]52]: 3.51 ± 0.41 nM; `C[C@@H](O)[C@H](NC(=O)C1CSSCC(NC(=O)C(Cc2ccccc2)NC(=O)CNC(=O)CNC(=O)CNC(=O)C(CC(=O)O)NC(=O)[C@@H](CC(=O)O)NC(=O)C(CNC(=O)CN2CCN(CC(=O)O)CCN(CC(=O)O)CCN(CC(=O)O)CC2)NC(=O)[C@@H](CN)NC(=O)CNC(=O)CNC(=O)C[N+](C)(C)Cc2ccc([Si](F)(C(C)(C)C)C(C)(C)C)cc2)C(=O)N[C@@H](Cc2ccc(O)cc2)C(=O)NC(Cc2c[nH]c3ccccc23)C(=O)N[C@@H](CCCCN)C(=O)N[C@@H]([C@@H](C)O)C(=O)N1)C(=O)O` (stereo partly shown) (natLu complex, metal not drawn) [[Lu]53]: 3.36 ± 0.27 nM.
Consider `CC(O)C(NC(=O)C1CSSCC(NC(=O)C(Cc2ccccc2)NC(=O)CNC(=O)CNC(=O)CNC(=O)[C@@H](CCCN)NC(=O)[C@@H](CCCN)NC(=O)C(CNC(=O)CN2CCN(CC(N)=O)CCN(CC(N)=O)CCN(CC(N)=O)CC2)NC(=O)C[N+](C)(C)Cc2ccc([Si](F)(C(C)(C)C)C(C)(C)C)cc2)C(=O)N[C@@H](Cc2ccc(O)cc2)C(=O)NC(Cc2c[nH]c3ccccc23)C(=O)N[C@@H](CCCCN)C(=O)N[C@@H]([C@@H](C)O)C(=O)N1)C(=O)O` (stereo partly shown) [[Pb]61] (X1-[ξDap](DO3AM)[dOrn][dOrn]GGG[ξF][ξC]Y[ξW]KT[ξC][ξT]-OH; disulfide 8-13), for which the IC50 worked out at 7.96 ± 0.28 nM.

The term IC50 denotes the point on the concentration scale where inhibition reaches its midpoint. Low readings indicate inhibition by little substance, high ones a need for much substance.
